Counter-ions that a name gives are not always drawn.
Tests used:
[1] = AlphaScreen counterscreen against bio-H3K4me2 peptide in the absence of enzyme (artifact signal); conditions: for Artifact Signal (percent): effect of the compound when incubated with bio-H3K4me2 peptide (counterscreen, no enzyme); for Artifact signal: effect of the compound when it is incubated with bio-H3K4me2 peptide: counterscreen, no enzyme;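 on all read-outs here: counterscreen run without enzyme against bio-H3K4me2 peptide to remove false positive hits from the JARID1 demethylase AlphaScreen screen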
JARID1B = biological target: T1, JARID1B (Homo sapiens, UniProt Q9UGL1); test: FLAG-JARID1B histone demethylase assay with AlphaScreen detection (HTS and dose response); type: biochemical; conditions: for Assay − Artifact Signal (percent): assay signal minus artifact signal; for inhibition at 20 µM: read-out: Inhibitory effect (percent); for Assay Signal (percent) / Validation result of HTS active: effect of the compound in the JARID1B AlphaScreen demethylase assay: validation of HTS actives; for Assay Signal (percent): effect of compound in JARID1B AlphaScreen assay; for Validation result of HTS active: effect of the compound in the JARID1B AlphaScreen demethylase assay: total signal before subtraction of artifact signal;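 on Assay Signal (percent): compound tested at 20 µM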;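 on Assay − Artifact Signal (percent): compound tested at 20 µM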;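 on all read-outs here: FLAG-tagged JARID1B at 4 nM acting on a biotinylated H3K4me3 peptide, demethylation read by AlphaScreen luminescence, with hits checked against bio-H3K4me2 without enzyme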
T1 construct: The FLAG tagged full length JARID1B enzyme was expressed in Sf21 insect cells using FLAG-JARID1B baculoviruses; FLAG (N); made in house; host or cells: Sf21 insect cells (baculovirus)

[2] = high-throughput screen, compound 20 μM, standard demethylase conditions (10 μM α-KG, 50 μM Fe (II))

T1 sequence (Q9UGL1 whole entry): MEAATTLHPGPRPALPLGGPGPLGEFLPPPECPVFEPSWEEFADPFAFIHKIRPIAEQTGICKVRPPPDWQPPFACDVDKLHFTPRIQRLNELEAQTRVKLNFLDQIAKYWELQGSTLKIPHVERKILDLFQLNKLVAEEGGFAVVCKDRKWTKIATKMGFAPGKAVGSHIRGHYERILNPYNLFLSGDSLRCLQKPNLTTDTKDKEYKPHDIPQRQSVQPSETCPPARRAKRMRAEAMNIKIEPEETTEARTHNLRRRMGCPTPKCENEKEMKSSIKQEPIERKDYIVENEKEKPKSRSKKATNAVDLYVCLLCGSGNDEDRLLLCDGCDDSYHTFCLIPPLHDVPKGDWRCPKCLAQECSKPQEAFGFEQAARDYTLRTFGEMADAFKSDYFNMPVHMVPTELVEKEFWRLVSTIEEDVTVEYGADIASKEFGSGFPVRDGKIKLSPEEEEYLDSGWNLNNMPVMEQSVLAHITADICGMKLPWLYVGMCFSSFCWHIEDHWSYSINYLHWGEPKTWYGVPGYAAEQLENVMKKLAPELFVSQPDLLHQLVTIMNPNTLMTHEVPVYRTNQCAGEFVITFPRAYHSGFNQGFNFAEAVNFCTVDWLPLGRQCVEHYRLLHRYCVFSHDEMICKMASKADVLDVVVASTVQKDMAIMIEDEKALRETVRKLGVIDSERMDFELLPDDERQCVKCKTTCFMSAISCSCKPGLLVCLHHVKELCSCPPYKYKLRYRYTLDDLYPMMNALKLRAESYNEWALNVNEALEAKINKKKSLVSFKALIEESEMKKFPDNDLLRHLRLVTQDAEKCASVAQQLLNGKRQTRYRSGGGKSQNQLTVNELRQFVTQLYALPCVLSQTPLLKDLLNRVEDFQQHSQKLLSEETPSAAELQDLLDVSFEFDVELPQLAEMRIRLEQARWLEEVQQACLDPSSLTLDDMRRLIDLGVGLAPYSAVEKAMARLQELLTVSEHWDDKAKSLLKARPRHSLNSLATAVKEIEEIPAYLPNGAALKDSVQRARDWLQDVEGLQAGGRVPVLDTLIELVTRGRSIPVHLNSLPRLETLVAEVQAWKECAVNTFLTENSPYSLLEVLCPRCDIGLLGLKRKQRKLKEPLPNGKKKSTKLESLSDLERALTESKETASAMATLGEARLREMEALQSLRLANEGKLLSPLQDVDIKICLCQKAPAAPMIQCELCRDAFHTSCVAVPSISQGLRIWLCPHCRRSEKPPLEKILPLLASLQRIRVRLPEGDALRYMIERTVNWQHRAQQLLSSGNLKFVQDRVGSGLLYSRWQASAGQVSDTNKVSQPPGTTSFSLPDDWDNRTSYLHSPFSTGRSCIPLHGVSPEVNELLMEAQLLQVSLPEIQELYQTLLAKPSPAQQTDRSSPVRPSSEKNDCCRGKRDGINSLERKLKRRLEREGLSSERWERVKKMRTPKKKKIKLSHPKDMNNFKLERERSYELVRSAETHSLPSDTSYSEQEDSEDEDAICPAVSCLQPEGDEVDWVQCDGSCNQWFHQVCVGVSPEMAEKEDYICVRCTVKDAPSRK

Artifact Signal (percent) [1] [%] | Assay − Artifact Signal (percent) (JARID1B) [%] | inhibition at 20 µM (JARID1B; [2]) [%] | Assay Signal (percent) (JARID1B) [%] | Artifact signal: effect of the compound when it is incubated with bio-H3K4me2 peptide [1] | Validation result of HTS active: effect of the compound in the JARID1B AlphaScreen demethylase assay (JARID1B) | Inhibitory effect (percent) (JARID1B; high-throughput screen, compound 20 μM, standard demethylase conditions (10 μM α-KG, 50 μM Fe (II)), HYDROCHLORIDE) [%] | SMILES
−4.00 | 42.72 | 62.4 | 38.73 | – | – | – | Cc1[nH]c2nc(C(F)(F)F)nn2c(=O)c1C [YU172199]
−3.18 | 43.88 | 38.8 | 40.70 | – | – | – | CCn1c(S)nnc1-c1ccncc1 [YU144949]
5.60 | 66.40 | 80.6 | 72.00 | – | – | – | CCCCC(CC)CNC(=N)NC(=N)NCCCCCCNC(=N)NC(=N)NCC(CC)CCCC (stereo not drawn) [YU034347, ALEXIDINE HYDROCHLORIDE, reference compound]
– | – | 98.2 | – | −2.67 | −1.32 | – | COc1cc(C=O)cc(Cl)c1OCc1cccc([N+](=O)[O-])c1 [YU152587]
0.57 | 32.23 | 42.1 | 32.80 | – | – | – | Cc1cc(N)c2ccccc2[n+]1CCCCCCCCCC[n+]1c(C)cc(N)c2ccccc21 [YU034372, DEQUALINIUM CHLORIDE, reference compound]
1.24 | 12.20 | 32.3 | 13.44 | – | – | – | CC(=O)Oc1c([N+](=O)[O-])cc2c(c1Br)CCCC2 [YU151714]
1.95 | 23.51 | 55.3 | 25.46 | – | – | – | O=C(NC1=NC(=O)C(F)(C(F)(F)F)S1)NC1CCCCC1 (stereo not drawn) [YU153281]
– | – | 60 | – | 68.65 | 72.27 | – | O=C(O)c1cc(O)c2c(c1)[C@@H]([C@H]1c3cc(C(=O)O)cc(O)c3C(=O)c3c(O[C@H]4O[C@H](CO)[C@@H](O)[C@H](O)[C@H]4O)cccc31)c1cccc(O[C@H]3O[C@H](CO)[C@@H](O)[C@H](O)[C@H]3O)c1C2=O (stereo in doubt) [YU155201, SENNOSIDE A, reference compound]
– | – | 99.6 | – | 4.29 | 9.13 | – | Cc1cccc(OCC(=O)Nc2ccccc2OC(F)F)c1C [YU152564]
−6.95 | 104.16 | 90.8 | 97.21 | – | – | – | Cn1c(C(C#N)=Cc2ccncc2)nc2ccccc21 (single isomer, unassigned) [YU146842]
−2.49 | 52.70 | 32 | 50.21 | – | – | – | Cn1cnnc1SCC(=O)c1ccc(C(C)(C)C)cc1 [YU149180]
10.00 | 32.68 | 51.3 | 42.68 | −2.83 | −1.42 | 46.86 | NCCc1ccc(O)c(O)c1 [YU033802, DOPAMINE HYDROCHLORIDE, reference compound]
– | – | 65.2 | – | 1.01 | 0.59 | – | O=c1cc(-c2ccccc2)oc2cc(O)c(O)c(O)c12 [YU155285, BAICALEIN, reference compound]

SMILES | Artifact Signal (percent) [1] [%] | Assay − Artifact Signal (percent) (JARID1B) [%] | inhibition at 20 µM (JARID1B; [2]) [%] | Assay Signal (percent) (JARID1B) [%] | Artifact signal: effect of the compound when it is incubated with bio-H3K4me2 peptide [1] | Validation result of HTS active: effect of the compound in the JARID1B AlphaScreen demethylase assay (JARID1B) | Inhibitory effect (percent) (JARID1B; high-throughput screen, compound 20 μM, standard demethylase conditions (10 μM α-KG, 50 μM Fe (II)), HYDROCHLORIDE) [%]
CCCCCCCCCCCCCCCC[N+](C)(C)C [YU034377, CETRIMONIUM BROMIDE, reference compound] | – | – | 94.2 | – | −6.13 | −6.81 | –

— patent US20150272939A1, “Identification of Small Molecule Inhibitors of Jumonji AT-Rich Interactive Domain 1A (JARID1A) and 1B (JARID1B) Histone Demethylase” (Yale University, priority 2012, published 2015)
